According to publication PMC8904451, “Novel chalcone-derived pyrazoles as potential therapeutic agents for the treatment of non-small cell lung cancer” (Scientific Reports, 2022):
Like-named read-outs stand apart in the source and are kept apart here.

Legend:
H226 cells = assay: MTT cell viability assay, H226; assay type: cell-based, human; details: 72 h, MTT, read-out: IC50 ± SD, growth inhibition, H226
Procedure: (§1) All the synthesized chalcone-derived pyrazoles were evaluated for their antiproliferative activity against three human non-small cell lung cancer cell lines: A-549, H226, and H460, and a nonmalignant human embryonic kidney cell line HEK293. Cisplatin and 5-fluorouracil (5-FU) were used as a reference. Cells were exposed to a range of PCH concentrations (0.5–100 µM) for 72 h and analyzed by 3-(4,5-dimethylthiazol-2-yl)-2,5-diphenyl-2H-tetrazolium bromide (MTT) assay. The results of the studies are expressed as the IC50 concentration that inhibits 50% growth of cells. […] Following treatment with PCH-1, the viability of all the tested cancer cell lines decreased in a concentration-dependent manner.
(§2) The cell viability assay was performed for A-549, H226, H460, and HEK293 cells after treatment with the test compounds by using the 3-(4,5-dimethylthiazol-2-yl)-2,5-diphenyltetrazolium bromide (MTT, Sigma-Aldrich) assay. Briefly, cells were seeded onto 96-well culture plates for attachment. After 24 h, triplicate wells were treated with DMSO (1%) and the agents. After 72 h of incubation at 37 °C in 5% CO2, the MTT solution (0.4 mg/ml) was added to each well. After 2–4 h of incubation, the medium was removed, and the formazan crystals were dissolved in 100 μl of DMSO. The absorption was measured at 450 nm with an ASYS UVM340 microplate reader (Biochrom Ltd.). The 50% inhibitory concentration (IC50) was defined as the concentration that reduced the absorbance of the DMSO-treated wells by 50% of the vehicle. The IC50 values were generated from GraphPad Prism 9 software by plotting the survival curve as a function of dose from 3 independent experiments.

A-549 cells [1] = assay: MTT cell viability assay, A-549; assay type: cell-based, human; details: 72 h, MTT, read-out: IC50 ± SD, growth inhibition, A-549
Procedure: as §1, with “Cells were exposed to a range of PCH concentrations (0.5–100 µM) for 72 h and analyzed by 3-(4,5-dimethylthiazol-2-yl)-2,5-diphenyl-2H-tetrazolium bromide (MTT) assay.” left out
as §2, with “After 72 h of incubation at 37 °C in 5% CO2, the MTT solution (0.4 mg/ml) was added to each well.” left out

HEK293 cells = assay: MTT cell viability assay, HEK293; assay type: cell-based, human; details: nonmalignant cells, read-out: IC50 ± SD, growth inhibition, HEK293
Procedure: as §1, §2

H460 cells = assay: MTT cell viability assay, H460; assay type: cell-based, human; details: 72 h, MTT, read-out: IC50 ± SD, growth inhibition, H460
Procedure: as §1, §2

A-549 cells [2] = assay: Intracellular ROS measurement (H2DCFDA, flow cytometry); assay type: cell-based, human; details: A-549, all the tested time points (3, 6, 24 h)
From the text: The generation of intracellular reactive oxygen species (ROS) causes an imbalance of cellular redox homeostasis, followed by damage of cellular components and cell death. Therefore, compounds with the ability to produce high levels of ROS and/or inhibit antioxidant processes are often used in anticancer therapies. In the present study, the effect of PCH-1 on ROS generation in A-549 cells was investigated by flow cytometry. As an indicator of ROS generation, the fluorescent probe 2ʹ,7ʹ-dichlorodihydrofluorescein diacetate (H2DCFDA) was used, which undergoes oxidation by ROS to form a highly fluorescent compound 2ʹ,7ʹ-dichlorofluorescein (DCF). As shown in Supplementary Fig. S6 in Supplementary Information, compound PCH-1 induced a massive amount of ROS in A-549 cells in a time-dependent manner. […] Moreover, the induction of ROS was equally high for PCH-1 and the reference compound H2O2 in all the tested time points.
For determination the ROS generation, cells were treated with IC90 of PCH-1, H2O2, or 1% DMSO for 3, 6, and 24 h. Next, a 1 µM CM-H2DCFDA (#C6827; Thermo-Fisher) probe was added to the cells in each plate 30 min before the end of the drug treatment. After incubation cells were collected by trypsinization, stained with 7-Aminoactinomycin D (7-AAD, Sigma-Aldrich), and measured. The analysis was performed with Guava EasyCyte 8 cell sorter (Merck Millipore) and FlowJo software v10. Each experiment was repeated independently three times.

tubulin = assay: HTS-tubulin polymerization assay; assay type: biochemical; details: 120-min kinetic reaction, absorbance 340 nm, vs vehicle
Procedure: To further evaluate whether the tubulin–microtubule system was the target site of PCH-1, in vitro microtubule polymerization assays were performed using the microtubule protein with Paclitaxel and Vincristine as a reference. Paclitaxel and Vincristine are antimitotic drugs that have been commonly used in conventional chemotherapy for decades. In 1979, it was shown that Paclitaxel accelerates the initiation of tubulin fiber polymerization and stabilizes the formed tubulin fibers in vitro, even in the absence of GTP or MAP in the solution[30]. Vincristine, on the other hand, binds to tubulin and inhibits its polymerization.
The assay was performed according to the manufacturer’s instructions. Briefly, compounds were diluted in DMSO to a concentration of 2 mM and then in GTB buffer to a concentration of 50 µM. In the wells of a 96-well plate (UV transparent, half surface wells) previously heated to 37 °C, 10 µl of dilutions of the test compounds were placed in duplicate. The plate was incubated for 2 min at 37 °C, and 100 µl of freshly prepared tubulin solution (4 mg/ml) in GTB-GTP buffer was then added. The plate was immediately placed in a Tecan SPARK 10 M plate reader, and the reaction kinetics were measured with the following settings: absorbance reading: 340 nm, 37 °C, interval: 45 s, number of cycles: 160.

Structure (SMILES)	IC50 (H226 cells; Homo sapiens, NCI-H226)	IC50 (A-549 cells [1]; Homo sapiens, A549)	IC50 (H460 cells; Homo sapiens, NCI-H460)	IC50 (HEK293 cells; Homo sapiens, HEK293, 72 h)	other results
O=c1[nH]cc(F)c(=O)[nH]1 [5-FU, 5-fluorouracil, reference compound]	4.01 ± 0.76 µM	8.12 ± 1.01 µM	4.08 ± 0.43 µM	11.1 ± 1.53 µM	–
N.N.[Cl][Pt][Cl] [Cisplatin, reference compound]	–	–	–	–	IC50 (H226 cells): 17.5 ± 2.12 µM; IC50 (A-549 cells [1]): 29.01 ± 0.12 µM; IC50 (HEK293 cells; 72 h): 28.4 ± 1.97 µM; IC50 (H460 cells): 21.5 ± 1.87 µM
COc1cc([C@@H]2c3cc4c(cc3[C@@H](O[C@@H]3O[C@@H]5CO[C@@H](C)O[C@H]5[C@H](O)[C@H]3O)[C@H]3COC(=O)[C@H]23)OCO4)cc(OC)c1O [Etoposide, reference compound]	1.03 ± 0.16 µM	0.54 ± 0.21 µM	0.05 ± 0.01 µM	1.91 ± 0.97 µM	–
OO [H2O2, reference compound]	–	–	–	–	induction of ROS, reference compared with PCH-1 (A-549 cells [2]): equally high
CC(=O)O[C@H]1C(=O)[C@@]2(C)[C@H]([C@H](OC(=O)c3ccccc3)[C@]3(O)C[C@H](OC(=O)[C@H](O)[C@@H](NC(=O)c4ccccc4)c4ccccc4)C(C)=C1C3(C)C)[C@]1(OC(C)=O)CO[C@@H]1C[C@@H]2O [Paclitaxel]	–	–	–	–	effect on tubulin polymerization kinetics (tubulin): accelerated the nucleation phase and increased the total mass of tubulin polymer
CC[C@]1(O)C[C@H]2CN(CCc3c([nH]c4ccccc34)[C@@](C(=O)OC)(c3cc4c(cc3OC)N(C=O)[C@H]3[C@@](O)(C(=O)OC)[C@H](OC(C)=O)[C@]5(CC)C=CCN6CC[C@]43[C@@H]65)C2)C1 [Vincristine, vincristine]	–	–	–	–	effect on tubulin polymerization kinetics (tubulin): extended the nucleation time and reduced the total mass of tubulin polymer

Now from value to compound, other results behind:

IC50 (H226 cells; Homo sapiens, NCI-H226)	IC50 (A-549 cells [1]; Homo sapiens, A549)	IC50 (H460 cells; Homo sapiens, NCI-H460)	Structure (SMILES)	IC50 (HEK293 cells; Homo sapiens, HEK293, 72 h)	other results
40.5 ± 3.52 µM	> 100 µM	43.8 ± 1.12 µM	COc1cc(C2=NN(C(C)=O)C(c3ccc4c(c3)OCO4)C2)cc(OC)c1OC (centres unmarked) [PCH-2, 1-[5-(2H-1,3-benzodioxol-5-yl)-3-(3,4,5-trimethoxyphenyl)-4,5-dihydro-1H-pyrazol-1-yl]ethan-1-one]	> 100 µM	–
86.7 ± 0.92 µM	> 100 µM	24.5 ± 1.74 µM	CC(=O)N1N=C(c2ccc(C)cc2)CC1c1ccc2c(c1)OCO2 (centres unmarked) [PCH-3, 1-[5-(2H-1,3-benzodioxol-5-yl)-3-(4-methylphenyl)-4,5-dihydro-1H-pyrazol-1-yl]ethan-1-one]	> 100 µM	–
86.7 ± 4.7 µM	> 100 µM	63.4 ± 3.34 µM	COc1ccccc1C1=NN(C(C)=O)C(c2ccc3c(c2)OCO3)C1 (centres unmarked) [PCH-4, 1-[5-(2H-1,3-benzodioxol-5-yl)-3-(2-methoxyphenyl)-4,5-dihydro-1H-pyrazol-1-yl]ethan-1-one]	> 100 µM	–
58 ± 2.56 µM	60.9 ± 4.3 µM	38.8 ± 1.77 µM	CC(=O)N1N=C(c2ccc3c(c2)OCO3)CC1c1ccc2c(c1)OCO2 (centres unmarked) [PCH-5, 1-[3,5-bis(2H-1,3-benzodioxol-5-yl)-4,5-dihydro-1H-pyrazol-1-yl]ethan-1-one]	47 ± 3.18 µM	–
24.4 ± 2.13 µM	21.5 ± 4.26 µM	18.1 ± 2.13 µM	CC(=O)N1N=C(c2ccc(OC(F)(F)F)cc2)CC1c1ccc2c(c1)OCO2 (centres unmarked) [PCH-6, 1-{5-(2H-1,3-benzodioxol-5-yl)-3-[4-(trifluoromethoxy)phenyl]-4,5-dihydro-1H-pyrazol-1-yl}ethan-1-one]	42.9 ± 1.23 µM	–
41.5 ± 1.12 µM	> 100 µM	30.2 ± 2.14 µM	COc1ccc(C2=NN(C(C)=O)C(c3ccc4c(c3)CCO4)C2)cc1 (centres unmarked) [PCH-7, 1-[5-(2,3-dihydro-1-benzofuran-5-yl)-3-(4-methoxyphenyl)-4,5-dihydro-1H-pyrazol-1-yl]ethan-1-one]	> 100 µM	–
61.1 ± 3.12 µM	> 100 µM	30.2 ± 2.14 µM	COc1ccc(C2=NN(C(C)=O)C(c3cc4c(cc3OC)OCO4)C2)cc1 (centres unmarked) [PCH-8, 1-[5-(6-methoxy-2H-1,3-benzodioxol-5-yl)-3-(4-methoxyphenyl)-4,5-dihydro-1H-pyrazol-1-yl]ethan-1-one]	> 100 µM	–
38.4 ± 3.53 µM	79.5 ± 4.97 µM	43.8 ± 3.97 µM	COc1cc2c(cc1C1=NN(C(C)=O)C(c3ccc(O)cc3)C1)SCO2 (centres unmarked) [PCH-9, 1-[5-(4-hydroxyphenyl)-3-(6-methoxy-2H-1,3-benzoxathiol-5-yl)-4,5-dihydro-1H-pyrazol-1-yl]ethan-1-one]	34.4 ± 2.01 µM	–
